Assay results published in patent US11053260B2, “Tri-cycle compound and applications thereof” (FUJIAN COSUNTER PHARMACEUTICAL CO., LTD., priority 2017, dated 2021).

Tested on: HBV
Experiment: HBV in vitro test in quantitative qPCR assay (HBV DNA content in HepG2.2.15 cells)
Format: cell-based
Conditions: Hepatitis B virus, HepG2.2.15, 192 h, HBV DNA by qPCR, day 8, read-out: 50% inhibitory concentration (EC50) value of HBV
Procedure: HBV In Vitro Test in Quantitative qPCR Assay
The HBV DNA content in HepG2.2.15 cells was determined by real-time quantitative qPCR assay (real time-qPCR), and the inhibitory effect of the compound on HBV was evaluated by the EC50 value of the compound.
2.1 Cell line: HepG2.2.15 cells
3.1 HepG2.2.15 cells (4×10^4 cells/well) were seeded into a 96-well plate and incubated overnight at 37° C. under 5% CO2.
3.2 On the 2nd day, the compound was diluted into 8 concentrations with 3-time gradient. The compounds with different concentrations were added into the culture wells in duplicate wells. The final concentration of DMSO in the culture medium was 1%. 1 μM GLS4 was used as a 100% inhibition control, and 1% DMSO was used as a 0% inhibition control.
3.3 On the 5th day, the culture medium was replaced with a fresh medium containing the compound.
3.4 On the 8th day, the culture medium in the culture well was collected, and the DNA was extracted with a high-throughput DNA purification kit (Qiagen-51162), of which specific procedure was referred to the product specification.
3.6 15 μL of the reaction mixture was added into each well of a 96-well PCR plate, followed by addition of 10 μL of sample DNA or HBV DNA standards into each well.
3.7 PCR reaction conditions: heating at 95° C. for 10 minutes; then denaturation at 95° C. for 15 seconds, extension at 60° C. for 1 minute, a total of 40 cycles.
3.8.1 Calculation of the percentage of inhibition: % Inh.=[1−(DNA copy number in sample−DNA copy number in 1 μM GLS4)/(DNA copy number in DMSO control−DNA copy number in 1 μM GLS4)]×100
3.8.2 Calculation of EC50: The 50% inhibitory concentration (EC50) value of the compound on HBV was calculated by GraphPad Prism software.

Structure (SMILES)	EC50 [nM]
O=C(NCc1cccc(F)c1)c1ccc2c(c1)NC(=O)c1cccn1S2(=O)=O [WX239]	≤ 100
CC(C)c1ncc(CNC(=O)c2ccc3c(c2)NC(=O)c2cc(Cl)cn2S3(=O)=O)s1 [WX255]	≤ 100
O=C(NCCCC(F)(F)F)c1ccc2c(c1)NC(=O)c1cccn1S2(=O)=O [WX187]	100 to 500
O=C(NCCc1cnco1)c1ccc2c(c1)NC(=O)c1cccn1S2(=O)=O [WX206]	100 to 500
O=C(NCCc1cccc(Cl)c1)c1ccc2c(c1)NC(=O)c1cccn1S2(=O)=O [WX300]	100 to 500
O=C(NCCC1COCCO1)c1ccc2c(c1)NC(=O)c1cc(CC(F)(F)F)cn1S2(=O)=O (centres unmarked) [WX328]	≤ 100
O=C(NCCc1ccccn1)c1ccc2c(c1)NC(=O)c1cccn1S2(=O)=O [WX229]	100 to 500
Cc1nnc(CNC(=O)c2ccc3c(c2)NC(=O)c2cccn2S3(=O)=O)s1 [WX271]	500 to 1000
O=C(NCCC1CCCC1)c1ccc2c(c1)NC(=O)c1cccn1S2(=O)=O [WX184]	100 to 500
O=C(NCc1cccc(OC(F)(F)F)c1)c1ccc2c(c1)NC(=O)c1cccn1S2(=O)=O [WX227]	100 to 500
CC(C)(C)OC(=O)N1CCC(CCNC(=O)c2ccc3c(c2)NC(=O)c2cccn2S3(=O)=O)CC1 [WX197]	100 to 500
Cc1cc2n(c1)S(=O)(=O)c1ccc(C(=O)NCCC3CCCCO3)cc1NC2=O (centres unmarked) [WX309]	≤ 100
Cc1ccsc1CNC(=O)c1ccc2c(c1)NC(=O)c1cccn1S2(=O)=O [WX259]	100 to 500
COCCCNC(=O)c1ccc2c(c1)NC(=O)c1cccn1S2(=O)=O [WX175]	100 to 500
CC(=O)N1CCOC(CCNC(=O)c2ccc3c(c2)NC(=O)c2cccn2S3(=O)=O)C1 (centres unmarked) [WX322]	≤ 100
O=C(NCc1cccnc1)c1ccc2c(c1)NC(=O)c1cccn1S2(=O)=O [WX220]	≤ 100
O=C(NCC1CCOC1)c1ccc2c(c1)NC(=O)c1cccn1S2(=O)=O (centres unmarked) [WX280]	100 to 500
O=C(NCc1ccc(C(F)(F)F)cc1)c1ccc2c(c1)NC(=O)c1cccn1S2(=O)=O [WX235]	100 to 500
O=C(NCCN1CCCS1(=O)=O)c1ccc2c(c1)NC(=O)c1cccn1S2(=O)=O [WX226]	500 to 1000
CC(C)OC(=O)N1CCC(CNC(=O)c2ccc3c(c2)NC(=O)c2cccn2S3(=O)=O)CC1 [WX285]	100 to 500
CSCCNC(=O)c1ccc2c(c1)NC(=O)c1cccn1S2(=O)=O [WX219]	≤ 100
COc1ccc(CCNC(=O)c2ccc3c(c2)NC(=O)c2cccn2S3(=O)=O)cc1 [WX217]	≤ 100
O=C(NCC1CCN(C(=O)Oc2ccccc2)CC1)c1ccc2c(c1)NC(=O)c1cccn1S2(=O)=O [WX286]	500 to 1000
CC(C)(C)C(=O)N1CCC(CNC(=O)c2ccc3c(c2)NC(=O)c2cccn2S3(=O)=O)CC1 [WX279]	100 to 500
O=C(NCCOc1cccnc1)c1ccc2c(c1)NC(=O)c1cccn1S2(=O)=O [WX295]	100 to 500
CN1CC(CNC(=O)c2ccc3c(c2)NC(=O)c2cccn2S3(=O)=O)OC1=O (centres unmarked) [WX275]	500 to 1000

Structure (SMILES)	EC50 [nM]
COC(=O)N1CCOC(CCNC(=O)c2ccc3c(c2)NC(=O)c2cccn2S3(=O)=O)C1 (centres unmarked) [WX323]	≤ 100
O=C(NCc1cncnc1)c1ccc2c(c1)NC(=O)c1cccn1S2(=O)=O [WX231]	100 to 500
O=C(NCCC1CCCCO1)c1ccc2c(c1)NC(=O)c1cc(Br)cn1S2(=O)=O (centres unmarked) [WX312]	≤ 100
Cc1nc(C)c(CNC(=O)c2ccc3c(c2)NC(=O)c2cccn2S3(=O)=O)s1 [WX260]	≤ 100
O=C(NCc1cnccc1C(F)(F)F)c1ccc2c(c1)NC(=O)c1cccn1S2(=O)=O [WX265]	1000 to 10000
CC(C)(C)OC(=O)N1CCCC1CNC(=O)c1ccc2c(c1)NC(=O)c1cccn1S2(=O)=O (centres unmarked) [WX198]	100 to 500
O=C(NCCc1ccc(F)cc1)c1ccc2c(c1)NC(=O)c1cccn1S2(=O)=O [WX216]	≤ 100
O=C(NCc1cnc(Cl)s1)c1ccc2c(c1)NC(=O)c1cccn1S2(=O)=O [WX257]	≤ 100
O=C(NCc1ccc(F)cc1)c1ccc2c(c1)NC(=O)c1cccn1S2(=O)=O [WX189]	100 to 500
Cc1cc2n(c1)S(=O)(=O)c1ccc(C(=O)NCCC3CCCO3)cc1NC2=O (centres unmarked) [WX186]	≤ 100
Cc1ccc2ncc(CNC(=O)c3ccc4c(c3)NC(=O)c3cccn3S4(=O)=O)n2c1 [WX261]	100 to 500
CCc1cc2n(c1)S(=O)(=O)c1ccc(C(=O)NCCC3CCCO3)cc1NC2=O (centres unmarked) [WX185]	≤ 100
O=C(NCCC1COCCOC1)c1ccc2c(c1)NC(=O)c1cccn1S2(=O)=O [WX321]	100 to 500
CC(C)(C)OC(=O)N1CC(NC(=O)c2ccc3c(c2)NC(=O)c2cccn2S3(=O)=O)C1 [WX195]	500 to 1000
O=C(NCCC1CCCCC1)c1ccc2c(c1)NC(=O)c1cccn1S2(=O)=O [WX215]	100 to 500
CC(C)c1ncc(CNC(=O)c2ccc3c(c2)NC(=O)c2cccn2S3(=O)=O)s1 [WX254]	100 to 500
Cn1cc(CNC(=O)c2ccc3c(c2)NC(=O)c2cccn2S3(=O)=O)cn1 [WX272]	100 to 500
CN(Cc1nc2ccccc2s1)C(=O)c1ccc2c(c1)NC(=O)c1cccn1S2(=O)=O [WX266]	100 to 500
O=C(NCCC1CCCO1)c1ccc2c(c1)NC(=O)c1cc(Br)cn1S2(=O)=O (centres unmarked) [WX311]	≤ 100
Cc1cccc2ncc(CNC(=O)c3ccc4c(c3)NC(=O)c3cccn3S4(=O)=O)n12 [WX258]	100 to 500
CC(C)(C)OC(=O)N1CC(CNC(=O)c2ccc3c(c2)NC(=O)c2cccn2S3(=O)=O)C1 [WX196]	≤ 100
O=C(NCCN1CCCC1=O)c1ccc2c(c1)NC(=O)c1cccn1S2(=O)=O [WX208]	500 to 1000
CC(C)c1ncc(CNC(=O)c2ccc3c(c2)NC(=O)c2c(Cl)ccn2S3(=O)=O)s1 [WX145]	100 to 500
CC(C)(C)OC(=O)N1CC2C(C1)C2NC(=O)c1ccc2c(c1)NC(=O)c1cccn1S2(=O)=O (centres unmarked) [WX146]	1000 to 10000
O=C(NCCCc1ccc(F)cc1)c1ccc2c(c1)NC(=O)c1cccn1S2(=O)=O [WX299]	100 to 500
O=C(NCCn1ccccc1=O)c1ccc2c(c1)NC(=O)c1cccn1S2(=O)=O [WX211]	500 to 1000

Structure (SMILES)	EC50 [nM]
O=C(NCc1ccncc1)c1ccc2c(c1)NC(=O)c1cccn1S2(=O)=O [WX228]	100 to 500
O=C(NCCC1CCCO1)c1ccc2c(c1)NC(=O)c1cc(Cl)cn1S2(=O)=O (centres unmarked) [WX143]	≤ 100
N#Cc1ccc(-c2ncc(CNC(=O)c3ccc4c(c3)NC(=O)c3cccn3S4(=O)=O)s2)cc1 [WX298]	≤ 100
Cc1ccc(CNC(=O)c2ccc3c(c2)NC(=O)c2cccn2S3(=O)=O)s1 [WX262]	100 to 500
O=C(NCCC(F)(F)F)c1ccc2c(c1)NC(=O)c1cccn1S2(=O)=O [WX230]	100 to 500
O=C(NCCc1cccc(F)c1)c1ccc2c(c1)NC(=O)c1cccn1S2(=O)=O [WX237]	≤ 100
CC(C)c1cc2n(c1)S(=O)(=O)c1ccc(C(=O)NCCC3COCCO3)cc1NC2=O (centres unmarked) [WX338]	100 to 500
O=C(NCCc1ccc(Cl)cc1)c1ccc2c(c1)NC(=O)c1cccn1S2(=O)=O [WX301]	≤ 100
COC1(CCNC(=O)c2ccc3c(c2)NC(=O)c2cccn2S3(=O)=O)CC1 [WX223]	500 to 1000
CC(C)CC(=O)N1CCC(CNC(=O)c2ccc3c(c2)NC(=O)c2cccn2S3(=O)=O)CC1 [WX287]	500 to 1000
CS(=O)(=O)CCCNC(=O)c1ccc2c(c1)NC(=O)c1cccn1S2(=O)=O [WX190]	500 to 1000
O=C(NCc1ccccn1)c1ccc2c(c1)NC(=O)c1cccn1S2(=O)=O [WX176]	1000 to 10000
CN(C)c1ncc(CNC(=O)c2ccc3c(c2)NC(=O)c2cccn2S3(=O)=O)s1 [WX233]	≤ 100
O=C(NCCOC1CCCC1)c1ccc2c(c1)NC(=O)c1cccn1S2(=O)=O [WX292]	500 to 1000
O=C(NCc1cnc2ccccn12)c1ccc2c(c1)NC(=O)c1cccn1S2(=O)=O [WX267]	100 to 500
Cc1cc2n(c1)S(=O)(=O)c1ccc(C(=O)NCc3cnc(-c4ccc(C#N)cc4)s3)cc1NC2=O [WX308]	≤ 100
O=C(NCCC1CCCO1)c1ccc2c(c1)NC(=O)c1cc(F)cn1S2(=O)=O (centres unmarked) [WX270]	100 to 500
O=C(NCCC1CCCCCO1)c1ccc2c(c1)NC(=O)c1cccn1S2(=O)=O (centres unmarked) [WX318]	≤ 100
O=C(NCCc1cccnc1)c1ccc2c(c1)NC(=O)c1cccn1S2(=O)=O [WX278]	≤ 100
O=C(NCCC1CCC(F)(F)CC1)c1ccc2c(c1)NC(=O)c1cccn1S2(=O)=O [WX225]	100 to 500
Cc1cc2n(c1)S(=O)(=O)c1ccc(C(=O)NCCc3ccc(F)cc3)cc1NC2=O [WX305]	≤ 100
CN1CCOC(CCNC(=O)c2ccc3c(c2)NC(=O)c2cccn2S3(=O)=O)C1 (centres unmarked) [WX326]	≤ 100
Cc1cc2n(c1)S(=O)(=O)c1ccc(C(=O)NCc3cccnc3)cc1NC2=O [WX306]	≤ 100
O=C(NCCc1ccc(F)c(F)c1)c1ccc2c(c1)NC(=O)c1cccn1S2(=O)=O [WX293]	≤ 100
CC(C)(C)OC(=O)N1CCC(CNC(=O)c2ccc3c(c2)NC(=O)c2cccn2S3(=O)=O)CC1 [WX200]	≤ 100
